Results published in ChEMBL document CHEMBL1201862, “PubChem BioAssay data set” (2004).
The source made the active and inactive calls.

Tests used:
[1] = THP-1 cell cytotoxicity, dose response, cytotoxicity control for non-replicating M. tuberculosis project (AID 489025); assay type: functional
[2] = cells; assay type: functional
[3] = molecular target: Fructose-bisphosphate aldolase (Mycobacterium tuberculosis, UniProt P9WQA3); test: Fluorescence-based biochemical high throughput dose response assay for inhibitors of the fructose-bisphosphate aldolase (FBA) of M. tuberculosis.; assay type: functional
[4] = potency of ADAM10 substrate cleavage blockers – biochemical, QFRET, dose response (AID 743254);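 note: ADAM10 enzyme with the DM2 quenched FRET peptide as substrate; EDANS fluorescence gain as the protease cuts the substrate; inhibitor potency against ADAM10 proteolytic activity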
[5] = molecular target: Disintegrin and metalloproteinase domain-containing protein 17 (Homo sapiens, UniProt P78536); test: inhibition of ADAM17 substrate cleavage – biochemical, quenched FRET substrate, counter-screen for ADAM10 exosite inhibitor project, dose response (AID 743253)
[6] = molecular target: T1, Aminopeptidase N (Plasmodium falciparum FcB1/Columbia, UniProt O96935); test: malaria alanyl aminopeptidase activity blockers – biochemical, fluorogenic H-Leu-NHMec substrate, 1536-well (AID 1445); parameters: species or system Plasmodium falciparum 3D7, 3D7
T1 sequence (O96935 whole entry): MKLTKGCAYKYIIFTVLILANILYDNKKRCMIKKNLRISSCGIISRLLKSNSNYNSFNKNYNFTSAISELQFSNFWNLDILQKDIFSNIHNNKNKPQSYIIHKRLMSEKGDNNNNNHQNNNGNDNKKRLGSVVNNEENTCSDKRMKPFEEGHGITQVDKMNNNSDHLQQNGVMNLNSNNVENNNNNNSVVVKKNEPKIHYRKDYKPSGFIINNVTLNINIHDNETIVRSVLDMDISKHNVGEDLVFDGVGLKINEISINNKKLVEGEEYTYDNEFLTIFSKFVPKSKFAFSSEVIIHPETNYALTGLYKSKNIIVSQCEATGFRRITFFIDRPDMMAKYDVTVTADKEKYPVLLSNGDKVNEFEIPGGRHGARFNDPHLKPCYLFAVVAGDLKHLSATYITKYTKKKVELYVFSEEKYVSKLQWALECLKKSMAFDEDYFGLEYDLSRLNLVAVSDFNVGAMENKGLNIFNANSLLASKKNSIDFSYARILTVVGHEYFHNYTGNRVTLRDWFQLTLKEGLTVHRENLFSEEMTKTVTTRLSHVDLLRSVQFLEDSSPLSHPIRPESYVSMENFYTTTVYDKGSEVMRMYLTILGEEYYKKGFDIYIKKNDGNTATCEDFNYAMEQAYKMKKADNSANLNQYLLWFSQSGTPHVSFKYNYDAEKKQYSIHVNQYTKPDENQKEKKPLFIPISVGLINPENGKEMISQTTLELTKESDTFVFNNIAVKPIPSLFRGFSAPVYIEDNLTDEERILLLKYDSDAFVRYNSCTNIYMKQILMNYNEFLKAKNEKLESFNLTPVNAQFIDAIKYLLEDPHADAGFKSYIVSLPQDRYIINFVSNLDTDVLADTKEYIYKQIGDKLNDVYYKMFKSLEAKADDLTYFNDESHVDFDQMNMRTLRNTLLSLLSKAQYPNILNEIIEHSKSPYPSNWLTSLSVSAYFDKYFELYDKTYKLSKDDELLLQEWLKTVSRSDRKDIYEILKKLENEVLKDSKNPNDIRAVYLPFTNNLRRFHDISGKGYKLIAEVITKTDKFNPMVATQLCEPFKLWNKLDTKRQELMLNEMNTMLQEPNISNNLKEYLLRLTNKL

[7] = molecular target: Kallikrein-7 (Homo sapiens, UniProt P49862); test: Fluorescence Intensity-based biochemical primary high throughput dose response assay to identify activators of kallikrein-7 (K7) zymogen.
[8] = intracellular Trypanosoma cruzi inhibitors in host cells – cell-based, plate reader, cherry-pick samples, set 3, dose response (AID 651818); assay type: functional;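 note: compounds incubated with infected cells for about four days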
[9] = molecular target: Paired box protein Pax-8 (Homo sapiens, UniProt Q06710); test: PAX8 transcriptional activity inhibition in RMG-I – RMG-I cells, luciferase, cherry-pick, dose response (AID 687027); assay type: functional, cell-based;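 note: luciferase reporter driven by Pax8 target thyroperoxidase promoter measured by SteadyGlo luminescence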
[10] = OVCAR-3 cell viability loss – plate reader, dry powder samples, PAX8 inhibitor project, dose response (AID 743044); assay type: functional, cell-based
[11] = IGROV1 cell killing – plate reader, dry powder samples, PAX8 inhibitor project, dose response (AID 743043); assay type: functional, cell-based; details: IGROV-1
[12] = OVCAR8 cell viability loss – plate reader, dry powder samples, PAX8 project, dose response (AID 743197); assay type: functional, cell-based; details: OVCAR-8
[13] = general cell-killing toxicity readout – plate reader, dry powder samples, cytotoxicity control for PAX8 inhibitor project, dose response (AID 743021); assay type: functional, cell-based
[14] = T. cruzi growth inhibition in host cells, dose response, cell-based, plate reader, dry powder, set 2 (AID 652275); assay type: functional
[15] = general mammalian cell viability loss – inhibitor set, cherry-pick, set 2, cytotoxicity control for miR-122 modulator project, dose response (AID 720697); assay type: functional, cell-based
[16] = cytotoxicity in MITF-independent A375 cells – cell-based, CellTiter-Glo luminescence, dry powder, set 4, counter-screen for MITF inhibitor project, dose response (AID 624364); assay type: functional; details: A-375;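 note: A375 melanoma cells are MITF independent so this is a counter screen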

Paired box protein Pax-8, sequence (Q06710 whole entry): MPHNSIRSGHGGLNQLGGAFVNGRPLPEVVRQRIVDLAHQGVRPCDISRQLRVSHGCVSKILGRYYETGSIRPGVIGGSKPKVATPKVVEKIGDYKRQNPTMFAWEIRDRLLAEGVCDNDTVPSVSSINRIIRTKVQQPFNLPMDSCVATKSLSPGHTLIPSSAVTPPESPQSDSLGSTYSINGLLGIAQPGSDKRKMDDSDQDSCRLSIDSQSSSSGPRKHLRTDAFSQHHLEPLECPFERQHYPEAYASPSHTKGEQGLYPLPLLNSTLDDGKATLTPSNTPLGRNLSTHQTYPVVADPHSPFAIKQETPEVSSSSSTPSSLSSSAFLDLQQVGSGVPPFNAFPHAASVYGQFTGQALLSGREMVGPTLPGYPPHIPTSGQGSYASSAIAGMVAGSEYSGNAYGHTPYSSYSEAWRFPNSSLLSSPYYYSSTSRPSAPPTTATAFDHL
Disintegrin and metalloproteinase domain-containing protein 17, sequence (P78536 whole entry, the tested form may be a part): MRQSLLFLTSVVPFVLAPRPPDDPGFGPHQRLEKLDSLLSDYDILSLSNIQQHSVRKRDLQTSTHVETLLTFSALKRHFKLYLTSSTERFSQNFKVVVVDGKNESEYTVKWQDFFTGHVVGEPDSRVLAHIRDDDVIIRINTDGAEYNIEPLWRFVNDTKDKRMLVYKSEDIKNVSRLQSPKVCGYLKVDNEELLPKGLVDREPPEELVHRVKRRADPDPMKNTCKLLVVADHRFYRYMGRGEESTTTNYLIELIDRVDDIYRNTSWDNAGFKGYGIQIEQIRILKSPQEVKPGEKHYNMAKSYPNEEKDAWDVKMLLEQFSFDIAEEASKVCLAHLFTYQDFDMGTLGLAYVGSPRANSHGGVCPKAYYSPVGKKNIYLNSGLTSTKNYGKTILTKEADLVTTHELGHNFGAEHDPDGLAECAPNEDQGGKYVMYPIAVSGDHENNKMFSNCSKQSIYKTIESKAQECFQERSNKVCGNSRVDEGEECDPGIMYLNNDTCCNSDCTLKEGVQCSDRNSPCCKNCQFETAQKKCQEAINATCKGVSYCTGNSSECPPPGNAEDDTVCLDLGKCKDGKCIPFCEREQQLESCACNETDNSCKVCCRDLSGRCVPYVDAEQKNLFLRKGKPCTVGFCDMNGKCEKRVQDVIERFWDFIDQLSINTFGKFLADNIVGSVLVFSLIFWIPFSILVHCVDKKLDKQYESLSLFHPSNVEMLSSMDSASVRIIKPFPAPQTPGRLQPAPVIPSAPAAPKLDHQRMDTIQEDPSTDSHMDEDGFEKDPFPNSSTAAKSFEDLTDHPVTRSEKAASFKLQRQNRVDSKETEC
Fructose-bisphosphate aldolase, sequence (P9WQA3 whole entry): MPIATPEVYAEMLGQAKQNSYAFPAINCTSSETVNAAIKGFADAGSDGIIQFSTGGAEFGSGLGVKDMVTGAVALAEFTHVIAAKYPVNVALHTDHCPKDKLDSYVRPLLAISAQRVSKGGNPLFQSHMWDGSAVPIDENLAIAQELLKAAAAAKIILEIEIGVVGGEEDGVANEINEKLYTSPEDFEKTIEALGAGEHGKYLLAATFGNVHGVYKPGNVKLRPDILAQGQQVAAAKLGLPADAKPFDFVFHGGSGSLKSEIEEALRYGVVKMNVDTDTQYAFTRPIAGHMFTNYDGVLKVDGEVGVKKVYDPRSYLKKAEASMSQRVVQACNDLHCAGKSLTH
Kallikrein-7, sequence (P49862 whole entry): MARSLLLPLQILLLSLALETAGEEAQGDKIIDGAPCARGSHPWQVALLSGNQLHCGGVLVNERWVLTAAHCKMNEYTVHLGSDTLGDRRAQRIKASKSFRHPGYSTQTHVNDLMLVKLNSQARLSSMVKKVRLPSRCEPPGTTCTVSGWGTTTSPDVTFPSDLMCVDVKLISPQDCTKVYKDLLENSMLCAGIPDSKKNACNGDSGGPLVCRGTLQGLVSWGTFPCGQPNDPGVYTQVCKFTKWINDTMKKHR

With `COc1ccc2nc(N=C(N)NC(=O)C(C)(C)C)nc(C)c2c1` the CC50 [1] was > 40 µM (active), the IC50 [2] was 9.61 µM (active) and the IC50 [3] was 1.89 µM (active).

In the case of `COc1ccc(NC(S)=Nc2cc(-c3ccccc3)[nH]n2)cc1Cl`, the IC50 [4] is reported as > 69.5 µM (inactive) and the IC50 [5] is reported as > 69.5 µM (inactive).

With `CCN(CC)CCCNc1oc(/C=C/c2ccccc2)nc1C#N` the IC50 [6] was 61 µM (active) and the EC50 [7] was > 69.5 µM (inactive).

For `C[C@@H]1CN([C@@H](C)CO)C(=O)c2cc(NC(=O)Nc3ccc(C(F)(F)F)cc3)ccc2O[C@H]1CN(C)C(=O)Nc1ccc(C(F)(F)F)cc1`, the AC50 [8] was 3.41 µM (active), the AC50 [9] was 5.97 µM (active) and the AC50 [10] was 42.1 µM (active). For the same molecule, the AC50 [11] was 52.1 µM (active) and the AC50 [12] was 61.2 µM (active).

In the case of `C[C@@H]1CN([C@@H](C)CO)C(=O)Cc2cc(NC(=O)Cc3ccccc3)ccc2O[C@H]1CN(C)Cc1ccc(-c2ccccc2)cc1`, the AC50 [9] is reported as 9.31 µM (active) and the AC50 [13] is reported as 45.7 µM (active).

In the case of `C[C@@H]1CCCCO[C@H](CN(C)Cc2ccc(Cl)c(Cl)c2)[C@@H](C)CN([C@@H](C)CO)C(=O)c2cc(NC(=O)Cc3ccccc3)ccc2O1`, the AC50 [9] is reported as 11.2 µM (active), the AC50 [10] is reported as 33.4 µM (active) and the AC50 [11] is reported as 50.5 µM (active). For the same molecule, the AC50 [12] was > 70 µM (inactive).

In the case of `C[C@H]1CN([C@@H](C)CO)C(=O)c2cccc(NC(=O)c3ccncc3)c2O[C@@H]1CN(C)Cc1cc(Cl)cc(Cl)c1`, the AC50 [14] is reported as 0.0105 µM (active).

For `CCC(=O)N1[C@H](CO)[C@@H](c2ccccc2)[C@@H]1CN(C(C)C)S(C)(=O)=O`, the AC50 [15] was 0.51 µM (active).

With `C=CCNC1=C(NS(=O)(=O)c2cccs2)C(=O)c2ccccc2C1=O` the AC50 [16] was > 70 µM (inactive).
